Source: patent US4433147A, “Process for preparing 10-deazaminopterins” (priority 1982, dated 1984)
“And” between values parts separate entries of the source, which are not always exact repeats. Identical values can stand only once. Like-named read-outs stand apart in the source and are kept apart here.

Experiments:
L1210 leukemia [1] = assay: L1210 leukemia in BD (2) F1 female mice, i.p., 10-alkyl derivatives (Example 9, Table II); conditions: for AST / ILS: every two days times five; for antileukemic activity compared with methotrexate: on a similar dosage level
Streptococcus faecium = conditions: DeGraw et al., J. Heterocyclic Chem. 8 105 (1971); cited from earlier work
dihydrofolic reductase = conditions: cited from earlier work
[2] = Plasma and tissue (tumor, small intestine and marrow) pharmacokinetics; type: in vivo; conditions: for Plasma and tissue pharmacokinetics: small intestine and marrow, dAM versus MTX
in vivo = conditions: read-out: acute LD50
L1210 leukemia [3] = assay: L1210 leukemia in BD (2) F1 female mice, i.p., increase in median life span (Example 8, Table I); conditions: for Weight change / Increased life span / Median life span: three times per week
carrier in tumor = assay: membrane transport by carrier in tumor; type: cell-based
ascites tumor systems = assay: Ascites tumor systems, summary of Examples 10 to 13; type: in vivo, mice; conditions: all of the ascites tumor systems examined
[4] = 6.0 mg/kg oral every 2 days × 5

Source text for Ehrlich ascites: (§1) ^1 One dose (s.c.) every 2 days for a total of 5 doses.
(§2) ^2 Toxic animals weigh 13-15 g at death (original weight 20 g).
(§3) MST = Median survival time ± standard deviation.
ILS = Increased life span.
Source text for L1210 ascites: ^1 One dose every 2 days for a total of 5 doses.
^2 Animals weigh 13-15 g at death (original weight 20 g).
as §3
ILS = increased life span.
Each dose tested 2 to 4 times.
Source text for P815 ascites: as §1, §3
ILS = Increased life span.
Each dosage tested twice.
Source text for S180-J ascites: as §1, §2, §3
ILS = Increased life span.
Each dose tested 2 to 3 times.

CCC(Cc1cnc2nc(N)nc(N)c2n1)c1ccc(C(=O)N[C@@H](CCC(=O)O)C(=O)O)cc1 (stereo partly shown) [10-ethyl-10-deazaminopterin]
AST (L1210 leukemia [1]; 12 mg/kg i.p.): 18.3 ± 1.7 days
ILS (L1210 leukemia [1]; 12 mg/kg i.p.): +172%
AST (L1210 leukemia [1]; 18 mg/kg i.p.): 21.8 ± 1.4 days
ILS (L1210 leukemia [1]; 18 mg/kg i.p.): +220%
life span of the test mice (L1210 leukemia [1]; i.p.): very considerably increased
antileukemic activity compared with methotrexate (L1210 leukemia [1]; i.p.): superior to methotrexate

Nc1nc2ncc(CCc3ccc(C(=O)O)cc3)nc2c(=O)[nH]1 [10-deazapteroic acid]
growth-inhibitory activity (Streptococcus faecium): potent growth-inhibitory activity

CN(Cc1cnc2nc(N)nc(N)c2n1)c1ccc(C(=O)N[C@@H](CCC(=O)O)C(=O)O)cc1 [Methotrexate, reference compound]
dihydrofolic reductase inhibition (dihydrofolic reductase): powerful dihydrofolic reductase inhibitors
MST (median survival time) (P815 ascites; 6 mg/kg s.c. every 2 days × 5): 15.4 ± 1.1 days
Toxic Deaths (P815 ascites; 6 mg/kg s.c. every 2 days × 5): 0/10
MST (median survival time) (P815 ascites; 9 mg/kg s.c. every 2 days × 5): 17.6 ± 1.6 days
Toxic Deaths (P815 ascites; 9 mg/kg s.c. every 2 days × 5): 0/10
MST (median survival time) (P815 ascites; 12 mg/kg s.c. every 2 days × 5): 18.4 ± 1.3 days
Toxic Deaths (P815 ascites; 12 mg/kg s.c. every 2 days × 5): 0/10
Plasma and tissue pharmacokinetics [2]: similar
MST (median survival time) (Ehrlich ascites; 6 mg/kg s.c. every 2 days × 5): 19.8 ± 2.3 days
Toxic Deaths (Ehrlich ascites; 6 mg/kg s.c. every 2 days × 5): 0/10
MST (median survival time) (Ehrlich ascites; 9 mg/kg s.c. every 2 days × 5): 20.8 ± 3.0 days
Toxic Deaths (Ehrlich ascites; 9 mg/kg s.c. every 2 days × 5): 0/10
MST (median survival time) (Ehrlich ascites; 12 mg/kg s.c. every 2 days × 5): 20.2 ± 1.9 days
Toxic Deaths (Ehrlich ascites; 12 mg/kg s.c. every 2 days × 5): 0/10
LD50 (in vivo; ip or sc): 96 mg/kg
Weight change (L1210 leukemia [3]; 3.0 mg/kg i.p.): +8%
Toxicity (L1210 leukemia [3]; 6.0 mg/kg i.p.): Slight toxicity
Weight change (L1210 leukemia [3]; 6.0 mg/kg i.p.): +3%

Nc1nc(N)c2nc(CCc3ccc(C(=O)N[C@@H](CCC(=O)O)C(=O)O)cc3)cnc2n1 [10-deazaminopterin, 10-Deazaminopterin]
ILS (increased life span) (S180-J ascites; 3 mg/kg s.c. every 2 days × 5): 8.7%
MST (median survival time) (S180-J ascites; 3 mg/kg s.c. every 2 days × 5): 13.0 ± 1.1 days
ILS (increased life span) (S180-J ascites; 6 mg/kg s.c. every 2 days × 5): 74.8%
MST (median survival time) (S180-J ascites; 6 mg/kg s.c. every 2 days × 5): 21.2 ± 1.7 days
ILS (increased life span) (S180-J ascites; 9 mg/kg s.c. every 2 days × 5): 117.3%
MST (median survival time) (S180-J ascites; 9 mg/kg s.c. every 2 days × 5): 26.3 ± 0.7 days
60 day survivors (S180-J ascites; 12 mg/kg s.c. every 2 days × 5): Two
ILS (increased life span) (S180-J ascites; 12 mg/kg s.c. every 2 days × 5): > 159.6%
MST (median survival time) (S180-J ascites; 12 mg/kg s.c. every 2 days × 5): > 31.4 ± 2.5 days
ILS (increased life span) (S180-J ascites; 18 mg/kg s.c. every 2 days × 5): 54.0%
MST (median survival time) (S180-J ascites; 18 mg/kg s.c. every 2 days × 5): 18.6 ± 2.4 days
long-term survivors (S180-J ascites; against S180, s.c.): long-term survivors
Maximum ILS (S180-J ascites; against S180, s.c., q2d×5): > +160%
Toxic Deaths (S180-J ascites; mouse, in vivo): 0/10 and 0/15 and 7/10
ILS (increased life span) (P815 ascites; 6 mg/kg s.c. every 2 days × 5): 107.6%
MST (median survival time) (P815 ascites; 6 mg/kg s.c. every 2 days × 5): 18.2 ± 1.3 days
ILS (increased life span) (P815 ascites; 9 mg/kg s.c. every 2 days × 5): 116.3%
MST (median survival time) (P815 ascites; 9 mg/kg s.c. every 2 days × 5): 19.0 ± 0.9 days
ILS (increased life span) (P815 ascites; 12 mg/kg s.c. every 2 days × 5): 118.4%
MST (median survival time) (P815 ascites; 12 mg/kg s.c. every 2 days × 5): 19.2 ± 1.2 days
Maximum ILS (P815 ascites; against P815, s.c., q2d×5): +117%
Toxic Deaths (P815 ascites; mouse, in vivo): 0/10
competition for carrier mechanism (carrier in tumor; dAM and MTX): compete for the same carrier mechanism
affinity of carrier in tumor (carrier in tumor; dAM versus MTX): greater affinity
saturability (Km) for influx (carrier in tumor; membrane transport in tumor, dAM versus MTX): favoring greater accumulation of dAM
persistence of exchangeable drug in tumor ([2]; optimum dosages, dAM over MTX): greater persistence
Plasma and tissue pharmacokinetics [2]: similar
ILS (increased life span) (Ehrlich ascites; 6 mg/kg s.c. every 2 days × 5): 34.8%
MST (median survival time) (Ehrlich ascites; 6 mg/kg s.c. every 2 days × 5): 23.2 ± 1.8 days
ILS (increased life span) (Ehrlich ascites; 9 mg/kg s.c. every 2 days × 5): 58.1%
MST (median survival time) (Ehrlich ascites; 9 mg/kg s.c. every 2 days × 5): 27.2 ± 2.2 days
ILS (increased life span) (Ehrlich ascites; 12 mg/kg s.c. every 2 days × 5): 64.0%
MST (median survival time) (Ehrlich ascites; 12 mg/kg s.c. every 2 days × 5): 28.2 ± 2.9 days
Maximum ILS (Ehrlich ascites; against Ehrlich, s.c., q2d×5): +61%
Toxic Deaths (Ehrlich ascites; mouse, in vivo): 0/10
LD50 (in vivo): 65 mg/kg
Increased life span (L1210 leukemia [3]; 0.1875 mg/kg i.p.): 3.0%
Median life span (L1210 leukemia [3]; 0.1875 mg/kg i.p.): 7.2 ± 0.6 days
Weight change (L1210 leukemia [3]; 0.1875 mg/kg i.p.): +10%
Increased life span (L1210 leukemia [3]; 0.375 mg/kg i.p.): 29.7%
Median life span (L1210 leukemia [3]; 0.375 mg/kg i.p.): 8.9 ± 1.0 days
Weight change (L1210 leukemia [3]; 0.375 mg/kg i.p.): +7%
Increased life span (L1210 leukemia [3]; 3.0 mg/kg i.p.): 164.8%
Median life span (L1210 leukemia [3]; 3.0 mg/kg i.p.): 13.0 ± 1.9 days
Weight change (L1210 leukemia [3]; 3.0 mg/kg i.p.): +5%
Toxicity (L1210 leukemia [3]; 6.0 mg/kg i.p.): slight toxicity
Increased life span (L1210 leukemia [3]; 6.0 mg/kg i.p.): 210.0%
Median life span (L1210 leukemia [3]; 6.0 mg/kg i.p.): 21.8 ± 1.5 days
Weight change (L1210 leukemia [3]; 6.0 mg/kg i.p.): -3%
life span of the test mice (L1210 leukemia [3]; i.p.): very considerably increased
antileukemic activity compared with methotrexate (L1210 leukemia [3]; on a similar dosage level, i.p.): superior to methotrexate
activity compared with methotrexate (ascites tumor systems): more active than methotrexate
ILS (increased life span) (L1210 ascites; 3 mg/kg oral every 2 days × 5): 77%
MST (median survival time) (L1210 ascites; 3 mg/kg oral every 2 days × 5): 11.7 ± 1.0 days
ILS (increased life span) (L1210 ascites; 3 mg/kg s.c. every 2 days × 5): 108%
MST (median survival time) (L1210 ascites; 3 mg/kg s.c. every 2 days × 5): 13.8 ± 0.7 days
ILS (increased life span) (L1210 ascites; [4]): 122%
MST (median survival time) (L1210 ascites; [4]): 14.7 ± 1.3 days
ILS (increased life span) (L1210 ascites; 6 mg/kg s.c. every 2 days × 5): 131%
MST (median survival time) (L1210 ascites; 6 mg/kg s.c. every 2 days × 5): 15.2 ± 1.5 days
ILS (increased life span) (L1210 ascites; 9 mg/kg s.c. every 2 days × 5): 168%
MST (median survival time) (L1210 ascites; 9 mg/kg s.c. every 2 days × 5): 17.8 ± 0.8 days
ILS (increased life span) (L1210 ascites; 12 mg/kg s.c. every 2 days × 5): 176%
MST (median survival time) (L1210 ascites; 12 mg/kg s.c. every 2 days × 5): 18.2 ± 1.3 days
Maximum ILS (L1210 ascites; against L1210, orally, same dosage and schedule): +122%
Maximum ILS (L1210 ascites; against L1210, s.c., q2d×5): +172%
Maximum ILS (L1210 ascites; ip): +203%
Toxic Deaths (L1210 ascites; mouse, in vivo): 0/10 and 0/15 and 1/15 and 0/20

CC(Cc1cnc2nc(N)nc(N)c2n1)c1ccc(C(=O)N[C@@H](CCC(=O)O)C(=O)O)cc1 (stereo partly shown) [10-methyl-10-deazaminopterin, 10-Methyl-10-deazaminopterin]
AST (L1210 leukemia [1]; 12 mg/kg i.p.): 18.1 ± 1.9 days
ILS (L1210 leukemia [1]; 12 mg/kg i.p.): +170%
AST (L1210 leukemia [1]; 18 mg/kg i.p.): 22.2 ± 1.6 days
ILS (L1210 leukemia [1]; 18 mg/kg i.p.): +230%
life span of the test mice (L1210 leukemia [1]; i.p.): very considerably increased
Toxicity (L1210 leukemia [1]; maximum dose, about 22 mg/kg, i.p.): slight toxicity
antileukemic activity compared with methotrexate (L1210 leukemia [1]; i.p.): superior to methotrexate
